# Like-named read-outs stand apart in the source and are kept apart here.
# What was measured:
# C. glabrata = assay: Checkerboard FIC assay in combination with fluconazole (MIC alone and in combination, FICI); type: cell-based, Candida glabrata; settings: for FICI of combination resulting in fluconazole MIC of: 2 ug/mL / FICI of combination resulting in fluconazole MIC of: 4 ug/mL / FICI of combination resulting in fluconazole MIC of: 8 ug/mL: FICI calculated using a fluconazole MIC of 16 μg/mL; for FICI of combination resulting in fluconazole MIC of: 2 ug/mL (value in parenthesis) / FICI of combination resulting in fluconazole MIC of: 4 ug/mL (value in parenthesis) / FICI of combination resulting in fluconazole MIC of: 8 ug/mL (value in parenthesis): FICI using a fluconazole MIC of 128 μg/mL; for MIC: Nakaseomyces glabratus; for Multiple of compound MIC to synergize fluconazole MIC to 2 ug/mL / Multiple of compound MIC to synergize fluconazole MIC to 4 ug/mL / Multiple of compound MIC to synergize fluconazole MIC to 8 ug/mL: concentration in combination as multiple of the compound's MIC alone; for Multiple of compound MIC to synergize fluconazole MIC to 2 ug/mL: fluconazole MIC 2 ug/mL; for Multiple of compound MIC to synergize fluconazole MIC to 4 ug/mL: fluconazole MIC 4 ug/mL; for Multiple of compound MIC to synergize fluconazole MIC to 8 ug/mL: fluconazole MIC 8 ug/mL; for Concentration of Methylgene compound to synergize fluconazole MIC to 2 ug/mL / Concentration of Methylgene compound to synergize fluconazole MIC to 4 ug/mL / Concentration of Methylgene compound to synergize fluconazole MIC to 8 ug/mL: in combination with fluconazole; for Concentration of Methylgene compound to synergize fluconazole MIC to 2 ug/mL: fluconazole MIC lowered to 2 ug/mL; for Concentration of Methylgene compound to synergize fluconazole MIC to 4 ug/mL: fluconazole MIC lowered to 4 ug/mL; for Concentration of Methylgene compound to synergize fluconazole MIC to 8 ug/mL: fluconazole MIC lowered to 8 ug/mL
# How it was run: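 A fluconazole synergy checkerboard was run against C. glabrata in MOPS-buffered RPMI (pH 7.0) for about 48 h at 35 °C. Each agent was diluted 2-fold, with one row and one column holding each agent alone for MIC determination. FICI was calculated from these MICs, using a 0.5 McFarland inoculum diluted 1:100 per CLSI.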
# Candida parapsilosis = assay: Minimal Inhibitory Concentration (MIC) assay, broth microdilution per CLSI; type: cell-based; settings: Lodderomyces parapsilosis, read-out: Minimum Inhibitory Concentrations against Yeast Isolates, Candida parapsilosis;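 further: two read times 24 hr and 48 hr of incubation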
# How it was run: (§1)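 CLSI broth microdilution in RPMI/0.165 M MOPS pH 7.0; 2-fold DMSO dilution series; inoculum 0.5 McFarland diluted 1:100; 35° C, ~24-48 hr; MIC = lowest conc. with no visible growth, read from plate bottom.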
# Candida albicans = assay: as above; type: cell-based; settings: Candida albicans, read-out: Minimum Inhibitory Concentrations against Yeast Isolates, Candida albicans;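 further: two read times 24 hr and 48 hr of incubation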
# How it was run: as §1
# Candida glabrata = assay: as above; type: cell-based; settings: Nakaseomyces glabratus, read-out: Minimum Inhibitory Concentrations against Yeast Isolates, Candida glabrata;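 further: two read times 24 hr and 48 hr of incubation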
# How it was run: as §1
# [1] = MIC of the example compound alone against C. glabrata in the checkerboard assay, approximately 48 hr, read-out: Methylgene MIC
# [2] = test compound alone, C. glabrata, approx. 48 hr at 35° C., read-out: Compound MIC
# [3] = 24 hr reading (first value of cell 24 hr/48 hr)
# [4] = 48 hr reading (second value of cell 24 hr/48 hr)
Compound,FICI of combination resulting in fluconazole MIC of: 2 ug/mL (C. glabrata; C. glabrata),FICI of combination resulting in fluconazole MIC of: 4 ug/mL (C. glabrata; C. glabrata),FICI of combination resulting in fluconazole MIC of: 8 ug/mL (C. glabrata; C. glabrata),FICI of combination resulting in fluconazole MIC of: 2 ug/mL (value in parenthesis) (C. glabrata; C. glabrata),FICI of combination resulting in fluconazole MIC of: 4 ug/mL (value in parenthesis) (C. glabrata; C. glabrata),FICI of combination resulting in fluconazole MIC of: 8 ug/mL (value in parenthesis) (C. glabrata; C. glabrata),MIC (C. glabrata; [1]),MIC (C. glabrata; [2]),Multiple of compound MIC to synergize fluconazole MIC to 2 ug/mL (C. glabrata),Multiple of compound MIC to synergize fluconazole MIC to 4 ug/mL (C. glabrata),Multiple of compound MIC to synergize fluconazole MIC to 8 ug/mL (C. glabrata),Concentration of Methylgene compound to synergize fluconazole MIC to 2 ug/mL (C. glabrata; C. glabrata),Concentration of Methylgene compound to synergize fluconazole MIC to 4 ug/mL (C. glabrata; C. glabrata),Concentration of Methylgene compound to synergize fluconazole MIC to 8 ug/mL (C. glabrata; C. glabrata),MIC (Candida parapsilosis; [3]),MIC (Candida parapsilosis; [4]),MIC (Candida albicans; [3]),MIC (Candida albicans; [4]),MIC (Candida glabrata; [3]),MIC (Candida glabrata; [4])
"O=C(Cc1ccc(CCCCc2ccc(NC(=O)CO)cc2)cc1)NO [Example 36, N-hydroxy-2-(4-(4-(4-(2-hydroxyacetamido)phenyl)butyl)phenyl)acetamide]",0.375,0.500,0.625,0.266,0.281,0.188,16 µg/mL,16 µg/mL,(¼x),(¼x),(⅛x),4 µg/mL,4 µg/mL,2 µg/mL,> 8 µg/mL,> 8 µg/mL,> 8 µg/mL,> 8 µg/mL,> 8 µg/mL,> 8 µg/mL
"COCCOCCOCCOCCC(=O)Nc1ccc(CCCCc2ccc(CC(=O)NO)cc2)cc1 [Example 37, N-(4-(4-(4-(2-(hydroxyamino)-2-oxoethyl)phenyl)butyl)phenyl)-2,5,8,11-tetraoxatetradecan-14-amide]",0.375,0.500,0.625,0.266,0.281,0.188,4 µg/mL,4 µg/mL,(¼x),(¼x),(⅛x),1 µg/mL,1 µg/mL,0.5 µg/mL,> 64 µg/mL,> 64 µg/mL,> 64 µg/mL,> 64 µg/mL,64 µg/mL,> 64 µg/mL
"CN(C)CCSCC(=O)Nc1ccc(CCCCc2ccc(CC(=O)NO)cc2)cc1 [Example 38, 2-(2-(dimethylamino)ethylthio)-N-(4-(4-(4-(2-(hydroxyamino)-2-oxoethyl)phenyl)butyl)phenyl)acetamide]",0.563,0.375,0.375,0.516,0.281,0.188,16 µg/mL,16 µg/mL,(½x),(¼x),(⅛x),8 µg/mL,4 µg/mL,2 µg/mL,> 64 µg/mL,> 64 µg/mL,> 64 µg/mL,> 64 µg/mL,16 µg/mL,16 µg/mL
